Test results reported in patent US20100144672A1, “PYRIMIDINYL PYRAZOLES AS INSECTICIDES AND PARASITICIDE ACTIVE AGENTS” (BAYER CROPSCIENCE AG, priority 2006, published 2010).
Where two headings read alike, the source gives them in different places. Each block holds one compound with its values, some of them ahead of it.

Legend:
[1] = logP by HPLC (EEC-Directive 79/831 Annex V.A8); format: physicochemical
Experimental: The logP values given in the tables were determined in accordance with EEC-Directive 79/831 Annex V.A8 by HPLC (gradient method, acetonitrile/0.1% strength aqueous phosphoric acid or formic acid).

[2] = tested on: larvae of the mustard beetle (Phaedon cochleariae); experiment: Phaedon test (PHAECO spray treatment); format: in vivo; details: 168 h, application rate 500 g/ha, after 7 d, read-out: activity (effect in %, beetle larvae killed)
Experimental: Phaedon Test ([…] Spray Treatment) [table] To produce a suitable preparation of active compound, 1 part by weight of active compound is mixed with the stated amounts of solvents and emulsifier, and the concentrate is diluted with emulsifier-containing water to the desired concentration. Discs of chinese cabbage (Brassica pekinensis) are sprayed with an active compound preparation of the desired concentration and, after drying, populated with larvae of the mustard beetle (Phaedon cochleariae). After the desired period of time, the effect in % is determined 100% means that all beetle larvae have been killed; 0% means that none of the beetle larvae have been killed.

[3] = tested on: caterpillars of the army worm (Spodoptera frugiperda); experiment: Spodoptera frugiperda test (SPODFR spray treatment); format: in vivo; details: 168 h, application rate 500 g/ha, after 7 d, read-out: activity (effect in %, caterpillars killed)
Experimental: Spodoptera frugiperda Test (SPODFR Spray Treatment) [table] To produce a suitable preparation of active compound, 1 part by weight of active compound is mixed with the stated amounts of solvents and emulsifier, and the concentrate is diluted with emulsifier-containing water to the desired concentration. Discs of maize leaves (Zea mays) are sprayed with an active compound preparation of the desired concentration and, after drying, populated with caterpillars of the army worm (Spodoptera frugiperda). After the desired period of time, the effect in % is determined 100% means that all caterpillars have been killed; 0% means that none of the caterpillars have been killed.

[4] = HPLC gradient method, acetonitrile/0.1% aqueous phosphoric acid or formic acid
[5] = Physical data column of Table 35
[6] = HPLC gradient method, acetonitrile/0.1% strength aqueous phosphoric acid or formic acid

logP ([1]; Physical data column of Table 16): logP = 1.71
SMILES: Cc1nn(-c2ncccn2)c(N)c1-c1ccc(F)cc1Cl [Example 16-18]

lgP ([1]; Table 19, Physical data): lgP = 3.84
SMILES: Cc1ccnc(-n2nc(C(F)(F)F)c(-c3cccc(Br)c3)c2N)n1 [Example 19-09]

lgP ([1]; Table 19, Physical data): lgP = 3.37
SMILES: Cc1ccnc(-n2nc(C(F)(F)F)c(-c3ccc(Br)cc3)c2N)n1 [Example 19-10]

lgP ([1]; Table 19, Physical data): lgP = 3.73
SMILES: Cc1ccnc(-n2nc(C(F)(F)F)c(-c3ccc(Cl)c(Cl)c3)c2N)n1 [Example 19-18]

lgP ([1]; Table 19, Physical data): lgP = 3.53
SMILES: Nc1c(-c2ccc(Cl)cc2)c(C(F)(F)F)nn1-c1ncc(Cl)cn1 [Example 19-64]

lgP ([1]; Table 19, Physical data): lgP = 4.15
SMILES: Nc1c(-c2cc(Cl)cc(Cl)c2)c(C(F)(F)F)nn1-c1ncc(Br)cn1 [Example 19-95]

lgP ([1]; Table 19, Physical data): lgP = 2.93
SMILES: COc1ccnc(-n2nc(C(F)(F)F)c(-c3cc(Cl)cc(Cl)c3)c2N)n1 [Example 19-171]

lgP ([1]; Table 19, Physical data): lgP = 3.42
SMILES: Cc1ccnc(-n2nc(C(F)(F)F)c(-c3cc(F)cc(Cl)c3)c2N)n1 [Example 19-198]

lgP ([1]; Table 19, Physical data): lgP = 3.06
SMILES: Cc1ccnc(-n2nc(C(F)(F)F)c(-c3cc(F)cc(F)c3)c2N)n1 [Example 19-199]

lgP ([1]; Table 19, Physical data): lgP = 3.28
SMILES: Cc1ccnc(-n2nc(C(F)(F)F)c(-c3ccc(Br)cc3F)c2N)n1 [Example 19-200]

lgP ([1]; Table 19, Physical data): lgP = 3.02
SMILES: Cc1ccnc(-n2nc(C(F)(F)F)c(-c3ccc(F)c(F)c3)c2N)n1 [Example 19-201]

lgP ([1]; Table 19, Physical data): lgP = 3.42
SMILES: Cc1cc(C)cc(-c2c(C(F)(F)F)nn(-c3nccc(C)n3)c2N)c1 [Example 19-202]

lgP ([1]; Table 19, Physical data): lgP = 3.42
SMILES: Cc1cnc(-n2nc(C(F)(F)F)c(-c3cc(F)cc(Cl)c3)c2N)nc1 [Example 19-203]

lgP ([1]; Table 19, Physical data): lgP = 3.06
SMILES: Cc1cnc(-n2nc(C(F)(F)F)c(-c3cc(F)cc(F)c3)c2N)nc1 [Example 19-204]

lgP ([1]; Table 19, Physical data): lgP = 3.28
SMILES: Cc1cnc(-n2nc(C(F)(F)F)c(-c3ccc(Br)cc3F)c2N)nc1 [Example 19-205]

lgP ([1]; Table 19, Physical data): lgP = 3.02
SMILES: Cc1cnc(-n2nc(C(F)(F)F)c(-c3ccc(F)c(F)c3)c2N)nc1 [Example 19-206]

lgP ([1]; Table 19, Physical data): lgP = 4.05
SMILES: Cc1cnc(-n2nc(C(F)(F)F)c(-c3cc(Br)cc(Br)c3)c2N)nc1 [Example 19-207]

lgP ([1]; Table 19, Physical data): lgP = 3.47
SMILES: Cc1cnc(-n2nc(C(F)(F)F)c(-c3cc(C)cc(C)c3)c2N)nc1 [Example 19-208]

lgP ([1]; Table 19, Physical data): lgP = 3.84
SMILES: N#Cc1ccnc(-n2nc(C(F)(F)F)c(-c3cc(Cl)cc(Cl)c3)c2N)n1 [Example 19-209]

logP ([1]; Table 25, Physical data): logP = 2.59
SMILES: CCNc1c(-c2ccc(F)cc2)c(C)nn1-c1ncccn1 [Example 25-04]

logP ([1]; Table 25, Physical data): logP = 2.69
SMILES: CCNc1c(-c2ccccc2Cl)c(C)nn1-c1ncccn1 [Example 25-05]

logP ([1]; Table 25, Physical data): logP = 3.02
SMILES: CCNc1c(-c2cccc(Cl)c2)c(C)nn1-c1ncccn1 [Example 25-06]

logP ([1]; Physical data of Table 26): logP = 3.37
SMILES: CCCNc1c(-c2cccc(Cl)c2)c(C)nn1-c1ncccn1 [Example 26-6]

logP ([1]; Physical data of Table 26): logP = 3.42
SMILES: CCCNc1c(-c2ccc(Cl)cc2)c(C)nn1-c1ncccn1 [Example 26-7]

logP ([1]; Physical data of Table 26): logP = 3.37
SMILES: Cc1nn(-c2ncccn2)c(NCc2ccccc2)c1-c1ccccc1Cl [Example 26-44]

logP ([1]; Physical data of Table 26): logP = 4.23
SMILES: Cc1nn(-c2ncccn2)c(NCc2ccccc2)c1-c1ccc(Cl)cc1Cl [Example 26-54]

logP ([1]; Physical data of Table 26): logP = 3.84
SMILES: CC(C)=CCNc1c(-c2ccc(Cl)cc2)c(C)nn1-c1ncccn1 [Example 26-84]

lgP ([1]; Physical data column of Table 32): lgP = 1.76
SMILES: CCc1nn(-c2ncccn2)c(N)c1-c1ccc(Cl)nc1 [Example 32-37]

logP [1, 5]: logP 2.66; ^1H-NMR
SMILES: Nc1c(-c2ccc(Cl)cc2)c(C2CC2)nn1-c1ncccn1 [Example 35-07]

logP [1, 5]: logP 3.34
SMILES: Nc1c(-c2ccc(Br)cc2)c(C2CCCC2)nn1-c1ncccn1 [Example 35-87]

lgP [1, 6]: lgP = 3.24
SMILES: Nc1c(-c2cc(F)cc(Cl)c2)c(C(F)(F)F)nn1-c1ncc(F)cn1 [Example 43-07]

lgP [1, 6]: lgP = 2.93
SMILES: Nc1c(-c2cc(F)cc(F)c2)c(C(F)(F)F)nn1-c1ncc(F)cn1 [Example 43-08]

lgP [1, 6]: lgP = 3.15
SMILES: Nc1c(-c2ccc(Br)cc2F)c(C(F)(F)F)nn1-c1ncc(F)cn1 [Example 43-09]

lgP [1, 6]: lgP = 2.84
SMILES: Nc1c(-c2ccc(F)c(F)c2)c(C(F)(F)F)nn1-c1ncc(F)cn1 [Example 43-10]

lgP [1, 6]: lgP = 3.84
SMILES: Nc1c(-c2cc(Br)cc(Br)c2)c(C(F)(F)F)nn1-c1ncc(F)cn1 [Example 43-11]

Further lines, the compound ahead of its results:

SMILES: Nc1c(-c2ccccc2Cl)c(C(F)(F)F)nn1-c1ncccn1 [1-04]
logP [1]: logP = 2.59

SMILES: Nc1c(-c2ccc(Oc3ccccc3)cc2)c(C(F)(F)F)nn1-c1ncccn1 [5-40]
logP [1, 4]: logP 3.22

SMILES: Nc1c(-c2cccc(Cl)c2)c(C(F)(F)F)nn1-c1ncccn1 [Example 1-5]
logP [1, 4]: logP = 2.96

SMILES: Nc1c(-c2ccc(Cl)c(Br)c2)c(C(F)(F)F)nn1-c1ncccn1 [Example 1-87, 4-(3-bromo-4-chlorophenyl)-2-pyrimidin-2-yl-5-(trifluoromethyl)-2H-pyrazol-3-ylamine]
pest or weed control at 500 g/ha [2]: ≥ 80%
pest or weed control at 500 g/ha [3]: ≥ 80%

SMILES: CCOc1ccc(-c2c(C(F)(F)F)nn(-c3ncccn3)c2N)cc1 [Example 5-23]
pest or weed control at 500 g/ha [2]: ≥ 80%

SMILES: CC(C)Oc1ccc(-c2c(C(F)(F)F)nn(-c3ncccn3)c2N)cc1 [Example 5-25]
pest or weed control at 500 g/ha [2]: ≥ 80%

SMILES: CSc1ccc(-c2c(C(F)(F)F)nn(-c3ncccn3)c2N)cc1 [Example 5-58]
pest or weed control at 500 g/ha [2]: ≥ 80%

SMILES: C[S+]([O-])c1ccc(-c2c(C(F)(F)F)nn(-c3ncccn3)c2N)cc1 (stereo not drawn) [Example 5-59]
pest or weed control at 500 g/ha [2]: ≥ 80%

SMILES: CS(=O)(=O)c1ccc(-c2c(C(F)(F)F)nn(-c3ncccn3)c2N)cc1 [Example 5-60]
pest or weed control at 500 g/ha [2]: ≥ 80%

SMILES: CN(C)c1ccc(-c2c(C(F)(F)F)nn(-c3ncccn3)c2N)cc1 [Example 5-89]
pest or weed control at 500 g/ha [2]: ≥ 80%

SMILES: Nc1c(-c2cccc(SC(F)(F)F)c2)c(C(F)(F)F)nn1-c1ncccn1 [Example 6-61]
pest or weed control at 500 g/ha [2]: ≥ 80%

SMILES: N#Cc1cccc(-c2c(C(F)(F)F)nn(-c3ncccn3)c2N)c1 [Example 6-70]
pest or weed control at 500 g/ha [2]: ≥ 80%
pest or weed control at 500 g/ha [3]: ≥ 80%

SMILES: Nc1c(-c2cccc([N+](=O)[O-])c2)c(C(F)(F)F)nn1-c1ncccn1 [Example 6-78]
pest or weed control at 500 g/ha [2]: ≥ 80%
pest or weed control at 500 g/ha [3]: ≥ 80%

SMILES: CC(C)Oc1ccc(-c2c(C(F)(F)F)nn(-c3ncccn3)c2N)cc1Cl [Example 8-92, 4-(3-chloro-4-isopropoxyphenyl)-2-pyrimidin-2-yl-5-trifluoromethyl-2H-pyrazol-3-ylamine]
pest or weed control at 500 g/ha [2]: ≥ 80%

SMILES: CNc1c(-c2ccc(Br)cc2)c(C(F)(F)F)nn1-c1ncccn1 [Example 11-10, 4-(4-bromophenyl)-N-methyl-1-pyrimidin-2-yl-3-(trifluoromethyl)-1H-pyrazole-5-amine]
pest or weed control at 500 g/ha [2]: ≥ 80%

SMILES: FC(F)(F)c1nn(-c2ncccn2)c(Cl)c1-c1cccc(Cl)c1 [Example 14-06]
logP (lgP), Physical data ([1]; by HPLC): lgP = 3.88

SMILES: FC(F)(F)c1nn(-c2ncccn2)c(Br)c1-c1cccc(Cl)c1 [Example 14-25]
logP (lgP), Physical data ([1]; by HPLC): lgP = 3.89

SMILES: FC(F)(F)c1nn(-c2ncccn2)c(Br)c1-c1ccc(Br)cc1 [Example 14-29]
chromatographic logP ([1]; by HPLC, read-out: logP (lgP), Physical data): 3.75

SMILES: FC(F)(F)c1nn(-c2ncccn2)c(Br)c1-c1cc(Cl)cc(Cl)c1 [Example 14-38]
logP (lgP), Physical data ([1]; by HPLC): lgP = 4.62

SMILES: FC(F)(F)c1nn(-c2ncccn2)c(I)c1-c1cccc(Cl)c1 [Example 14-44]
logP (lgP), Physical data ([1]; by HPLC): lgP = 3.78

SMILES: FC(F)(F)c1nn(-c2ncccn2)c(I)c1-c1ccc(Cl)c(Cl)c1 [Example 14-56]
logP (lgP), Physical data ([1]; by HPLC): lgP = 4.39

SMILES: FC(F)(F)c1nn(-c2ncccn2)c(I)c1-c1cc(Cl)cc(Cl)c1 [Example 14-57]
logP (lgP), Physical data ([1]; by HPLC): lgP = 4.51

SMILES: FC(F)(F)c1cc(Cl)cc(-c2c(C(F)(F)F)nn(-c3ncccn3)c2Br)c1 [Example 14-58]
logP (lgP), Physical data ([1]; by HPLC): lgP = 4.64

SMILES: FC(F)(F)c1cc(Cl)cc(-c2c(C(F)(F)F)nn(-c3ncccn3)c2I)c1 [Example 14-59]
logP (lgP), Physical data ([1]; by HPLC): lgP = 4.39

SMILES: Nc1c(-c2ccc(Br)cc2)c(C(F)(F)F)nn1-c1ncc(F)cn1 [Example 19-48]
lgP ([1]; Table 19, Physical data): lgP = 3.19

SMILES: Nc1c(-c2cc(Cl)cc(Cl)c2)c(C(F)(F)F)nn1-c1ncc(F)cn1 [Example 19-57]
lgP ([1]; Table 19, Physical data): lgP = 3.63

SMILES: Nc1c(-c2cc(Cl)cc(Cl)c2)c(C(F)(F)F)nn1-c1ncc(Cl)cn1 [Example 19-76]
lgP ([1]; Table 19, Physical data): lgP = 4.10

SMILES: Nc1c(-c2cc(Cl)cc(Cl)c2)c(C(F)(F)F)nn1-c1nccc(C(F)(F)F)n1 [Example 19-152]
lgP ([1]; Table 19, Physical data): lgP = 4.25

SMILES: CCNc1c(-c2ccc(F)cc2Cl)c(C)nn1-c1ncccn1 [Example 25-31]
logP [1]: logP = 2.79

SMILES: Cc1nn(-c2ncccn2)c(NC(C)C)c1-c1ccc(F)cc1Cl [Example 26-37]
logP ([1]; Physical data of Table 26): logP = 2.91

SMILES: Cc1nn(-c2ncccn2)c(NCC2CC2)c1-c1ccc(F)cc1 [Example 26-62]
logP ([1]; Physical data of Table 26): logP = 3.15
